Among the data in US12522602B2, “Derivatives having 2,3-dihydro-1H-indene or 2,3-dihydrobenzofuran moiety or pharmaceutically acceptable salt thereof and pharmaceutical compositions comprising the same” (YUHAN CORPORATION, priority 2019, dated 2026) are IC50 values, retold here.

Usually IC50 stands for the point on the concentration scale where inhibition reaches its midpoint. Low readings indicate greater potency in that assay, high ones weaker potency in that assay.

Each structure is given as a SMILES string.

The assay has as its system GM1 production in Jurkat cells. Briefly: cells. The class given is cell-based. The settings on record: Homo sapiens, Jurkat, 72 h.
Compound `CCc1cccc(-c2ccc3c(c2)CC(C)(C)C3NC(=O)O[C@@H]2CN3CCC2CC3)c1` (stereo partly drawn) [Example 108, (S)-quinuclidin-3-yl (5-(3-ethylphenyl)-2,2-dimethyl-2,3-dihydro-1H-inden-1-yl)carbamate] returned an IC50 of 7.6 nM. For `CC(C)c1cccc(-c2ccc3c(c2)CC(C)(C)C3NC(=O)O[C@@H]2CN3CCC2CC3)c1` (stereo partly drawn) [Example 109, (S)-quinuclidin-3-yl (5-(3-isopropylphenyl)-2,2-dimethyl-2,3-dihydro-1H-inden-1-yl)carbamate] the value was 7.8 nM; for `CC(C)(C)c1cccc(-c2ccc3c(c2)CC(C)(C)C3NC(=O)O[C@@H]2CN3CCC2CC3)c1` (stereo partly drawn) [Example 110, (S)-quinuclidin-3-yl (5-(3-(tert-butyl)phenyl)-2,2-dimethyl-2,3-dihydro-1H-inden-1-yl)carbamate], 15.1 nM.

As for `CC1(C)Cc2cc(-c3ccc4c(c3)OC(F)(F)O4)ccc2C1NC(=O)O[C@@H]1CN2CCC1CC2` (stereo partly drawn) [Example 111, (S)-quinuclidin-3-yl (5-(2,2-difluorobenzo[d][1,3]dioxol-5-yl)-2,2-dimethyl-2,3-dihydro-1H-inden-1-yl)carbamate], half-maximal inhibition (IC50) was put at 32 nM.

Take `CC1(C)Cc2cc(-c3ccc4c(c3)OCCO4)ccc2C1NC(=O)O[C@@H]1CN2CCC1CC2` (stereo partly drawn) [Example 112, (S)-quinuclidin-3-yl (5-(2,3-dihydrobenzo[b][1,4]dioxin-6-yl)-2,2-dimethyl-2,3-dihydro-1H-inden-1-yl)carbamate]: the IC50 is 35.6 nM. With `CC1(C)Cc2cc(-c3ccc4c(c3)CCO4)ccc2C1NC(=O)O[C@@H]1CN2CCC1CC2` (stereo partly drawn) [Example 113, (S)-quinuclidin-3-yl (5-(2,3-dihydrobenzofuran-5-yl)-2,2-dimethyl-2,3-dihydro-1H-inden-1-yl)carbamate] the figure was 54.8 nM.

Consider `CC1(C)Cc2cc(-c3cccc(OCCN4CCOCC4)c3)ccc2C1NC(=O)O[C@@H]1CN2CCC1CC2` (stereo partly drawn) [Example 114, (S)-quinuclidin-3-yl (2,2-dimethyl-5-(3-(2-morpholinoethoxy)phenyl)-2,3-dihydro-1H-inden-1-yl)carbamate], for which the IC50 is 33.7 nM. With `CC1(C)Cc2cc(-c3ccc(OCCF)cc3)ccc2C1NC(=O)O[C@@H]1CN2CCC1CC2` (stereo partly drawn) [Example 115, (S)-quinuclidin-3-yl (5-(4-(2-fluoroethoxy)phenyl)-2,2-dimethyl-2,3-dihydro-1H-inden-1-yl)carbamate] the figure was 38.3 nM; with `CC1(C)Cc2cc(-c3ccc(OCC(F)(F)F)cc3)ccc2C1NC(=O)O[C@@H]1CN2CCC1CC2` (stereo partly drawn) [Example 116, (S)-quinuclidin-3-yl (2,2-dimethyl-5-(4-(2,2,2-trifluoroethoxy)phenyl)-2,3-dihydro-1H-inden-1-yl)carbamate], 16.7 nM; with `CC1(C)Cc2cc(-c3ccc(OCCN4CCOCC4)cc3)ccc2C1NC(=O)O[C@@H]1CN2CCC1CC2` (stereo partly drawn) [Example 117, (S)-quinuclidin-3-yl (2,2-dimethyl-5-(4-(2-morpholinoethoxy)phenyl)-2,3-dihydro-1H-inden-1-yl)carbamate], 41.8 nM.

For the compound `CC1(C)Cc2cc(-c3ccnc(C(F)(F)F)c3)ccc2C1NC(=O)O[C@@H]1CN2CCC1CC2` (stereo partly drawn) [Example 118, (S)-quinuclidin-3-yl (2,2-dimethyl-5-(2-(trifluoromethyl)pyridin-4-yl)-2,3-dihydro-1H-inden-1-yl)carbamate], the half-inhibitory concentration (IC50) came to 38.4 nM. For `CC1(C)Cc2cc(-c3cc(Cl)ncc3Cl)ccc2C1NC(=O)O[C@@H]1CN2CCC1CC2` (stereo partly drawn) [Example 119, (S)-quinuclidin-3-yl (5-(2,5-dichloropyridin-4-yl)-2,2-dimethyl-2,3-dihydro-1H-inden-1-yl)carbamate] the value was 38.3 nM.

Compound `CN1CCOc2cc(-c3ccc4c(c3)CC(C)(C)C4NC(=O)O[C@@H]3CN4CCC3CC4)ccc21` (stereo partly drawn) [Example 120, (S)-quinuclidin-3-yl (2,2-dimethyl-5-(4-methyl-3,4-dihydro-2H-benzo[b][1,4]oxazin-7-yl)-2,3-dihydro-1H-inden-1-yl)carbamate] gave a half-inhibitory concentration (IC50) of 28.4 nM.

For `COc1ccc(Cl)c(-c2ccc3c(c2)CC(C)(C)C3NC(=O)O[C@@H]2CN3CCC2CC3)c1` (stereo partly drawn) [Example 121, (S)-quinuclidin-3-yl (5-(2-chloro-5-methoxyphenyl)-2,2-dimethyl-2,3-dihydro-1H-inden-1-yl)carbamate], the concentration for half-maximal inhibition (IC50) amounted to 4.7 nM. For `COc1ccc(-c2ccc3c(c2)CC(C)(C)C3NC(=O)O[C@@H]2CN3CCC2CC3)cc1Cl` (stereo partly drawn) [Example 122, (S)-quinuclidin-3-yl (5-(3-chloro-4-methoxyphenyl)-2,2-dimethyl-2,3-dihydro-1H-inden-1-yl)carbamate] the value was 50.8 nM; for `COc1ccc(-c2ccc3c(c2)CC(C)(C)C3NC(=O)O[C@@H]2CN3CCC2CC3)c(Cl)c1` (stereo partly drawn) [Example 123, (S)-quinuclidin-3-yl (5-(2-chloro-4-methoxyphenyl)-2,2-dimethyl-2,3-dihydro-1H-inden-1-yl)carbamate], 9.3 nM. With `COc1cccc(-c2ccc3c(c2)CC(C)(C)C3NC(=O)O[C@@H]2CN3CCC2CC3)c1Cl` (stereo partly drawn) [Example 124, (S)-quinuclidin-3-yl (5-(2-chloro-3-methoxyphenyl)-2,2-dimethyl-2,3-dihydro-1H-inden-1-yl)carbamate] the figure was 22.3 nM; with `COc1cc(-c2ccc3c(c2)CC(C)(C)C3NC(=O)O[C@@H]2CN3CCC2CC3)ccc1Cl` (stereo partly drawn) [Example 125, (S)-quinuclidin-3-yl (5-(4-chloro-3-methoxyphenyl)-2,2-dimethyl-2,3-dihydro-1H-inden-1-yl)carbamate], 9.5 nM. For `COc1ccc(-c2ccc3c(c2)CC(C)(C)C3NC(=O)O[C@@H]2CN3CCC2CC3)c(Cl)c1Cl` (stereo partly drawn) [Example 126, (S)-quinuclidin-3-yl (5-(2,3-dichloro-4-methoxyphenyl)-2,2-dimethyl-2,3-dihydro-1H-inden-1-yl)carbamate] the value was 50.5 nM. In turn, `CC(C)Oc1ccc(-c2ccc3c(c2)CC(C)(C)C3NC(=O)O[C@@H]2CN3CCC2CC3)cc1Cl` (stereo partly drawn) [Example 127, (S)-quinuclidin-3-yl (5-(3-chloro-4-isopropoxyphenyl)-2,2-dimethyl-2,3-dihydro-1H-inden-1-yl)carbamate] gave an IC50 of 18.2 nM. Consider `COc1ccc(-c2ccc3c(c2)CC(C)(C)C3NC(=O)O[C@@H]2CN3CCC2CC3)c(F)c1` (stereo partly drawn) [Example 128, (S)-quinuclidin-3-yl (5-(2-fluoro-4-methoxyphenyl)-2,2-dimethyl-2,3-dihydro-1H-inden-1-yl)carbamate], for which the IC50 worked out at 18.4 nM.

On to `CN(C)c1cc(-c2ccc3c(c2)CC(C)(C)C3NC(=O)O[C@@H]2CN3CCC2CC3)ccc1F` (stereo partly drawn) [Example 129, (S)-quinuclidin-3-yl (5-(3-(dimethylamino)-4-fluorophenyl)-2,2-dimethyl-2,3-dihydro-1H-inden-1-yl)carbamate], for which half-maximal inhibition (IC50) was put at 36.8 nM. With `CC1(C)Cc2cc(-c3ccc4c(c3)CCCO4)ccc2C1NC(=O)O[C@@H]1CN2CCC1CC2` (stereo partly drawn) [Example 130, (S)-quinuclidin-3-yl (5-(chroman-6-yl)-2,2-dimethyl-2,3-dihydro-1H-inden-1-yl)carbamate] the figure was 10 nM; with `CC1(C)Cc2cc(-c3ccc(C4CC4)cc3)ccc2C1NC(=O)O[C@@H]1CN2CCC1CC2` (stereo partly drawn) [Example 131, (S)-quinuclidin-3-yl (5-(4-cyclopropylphenyl)-2,2-dimethyl-2,3-dihydro-1H-inden-1-yl)carbamate], 10.6 nM; with `CN(C)c1ccc(-c2ccc3c(c2)CC(C)(C)C3NC(=O)O[C@@H]2CN3CCC2CC3)cc1` (stereo partly drawn) [Example 132, (S)-quinuclidin-3-yl (5-(4-(dimethylamino)phenyl)-2,2-dimethyl-2,3-dihydro-1H-inden-1-yl)carbamate], 29.2 nM. Consider `CCOc1ccc(-c2ccc3c(c2)CC(C)(C)C3NC(=O)O[C@@H]2CN3CCC2CC3)cc1F` (stereo partly drawn) [Example 133, (S)-quinuclidin-3-yl (5-(4-ethoxy-3-fluorophenyl)-2,2-dimethyl-2,3-dihydro-1H-inden-1-yl)carbamate], for which the concentration for half-maximal inhibition (IC50) came out at 22.6 nM. Turning to `COc1ccc(-c2ccc3c(c2)CC(C)(C)C3NC(=O)O[C@@H]2CN3CCC2CC3)cc1C(F)(F)F` (stereo partly drawn) [Example 134, (S)-quinuclidin-3-yl (5-(4-methoxy-3-(trifluoromethyl)phenyl)-2,2-dimethyl-2,3-dihydro-1H-inden-1-yl)carbamate], the concentration for half-maximal inhibition (IC50) is 43.2 nM. `CCCOc1ccc(-c2ccc3c(c2)CC(C)(C)C3NC(=O)O[C@@H]2CN3CCC2CC3)cc1` (stereo partly drawn) [Example 135, (S)-quinuclidin-3-yl (2,2-dimethyl-5-(4-propoxyphenyl)-2,3-dihydro-1H-inden-1-yl)carbamate] registered an IC50 of 8.1 nM.

`CC(C)COc1ccc(-c2ccc3c(c2)CC(C)(C)C3NC(=O)O[C@@H]2CN3CCC2CC3)cc1` (stereo partly drawn) [Example 136, (S)-quinuclidin-3-yl (5-(4-isobutoxyphenyl)-2,2-dimethyl-2,3-dihydro-1H-inden-1-yl)carbamate] displayed a half-maximal inhibitory concentration (IC50) of 1.7 nM. With `CC1(C)Cc2cc(-c3ccsc3)ccc2C1NC(=O)O[C@@H]1CN2CCC1CC2` (stereo partly drawn) [Example 137, (S)-quinuclidin-3-yl (2,2-dimethyl-5-(thiophen-3-yl)-2,3-dihydro-1H-inden-1-yl)carbamate] the figure was 12.1 nM; with `Cc1cscc1-c1ccc2c(c1)CC(C)(C)C2NC(=O)O[C@@H]1CN2CCC1CC2` (stereo partly drawn) [Example 138, (S)-quinuclidin-3-yl (2,2-dimethyl-5-(4-methylthiophen-3-yl)-2,3-dihydro-1H-inden-1-yl)carbamate], 9.1 nM; with `CN(C)CCOc1cccc(-c2ccc3c(c2)CC(C)(C)C3NC(=O)O[C@@H]2CN3CCC2CC3)c1` (stereo partly drawn) [Example 139, (S)-quinuclidin-3-yl (5-(3-(2-(dimethylamino)ethoxy)phenyl)-2,2-dimethyl-2,3-dihydro-1H-inden-1-yl)carbamate], 74.4 nM. With `CC1(C)Cc2cc(-c3cccc4ccncc34)ccc2C1NC(=O)O[C@@H]1CN2CCC1CC2` (stereo partly drawn) [Example 140, (S)-quinuclidin-3-yl (5-(isoquinolin-8-yl)-2,2-dimethyl-2,3-dihydro-1H-inden-1-yl)carbamate] the figure was 10.5 nM; with `CC1(C)Cc2cc(-c3cccc4cnccc34)ccc2C1NC(=O)O[C@@H]1CN2CCC1CC2` (stereo partly drawn) [Example 141, (S)-quinuclidin-3-yl (5-(isoquinolin-5-yl)-2,2-dimethyl-2,3-dihydro-1H-inden-1-yl)carbamate], 39.9 nM.
